Results taken from paper PMC9280334 (Frontiers in Chemistry, 2022).

Tests used:
PC12 cells = test: Neuroprotection against H2O2-induced cell death in PC12 cells (MTT); format: cell-based; settings: H2O2 (150 μM)-induced injury, mean ± SEM
Experimental: The cell viability was measured using MTT [3-(4,5-dimethylthiazol-2-yl)-2,5-diphenyl tetrazolium bromide] assay ([Datki et al., 2003]). PC12 cells (from the Iranian Biological Resource Center, IBRC) received different treatments, including no treatment (control), 150 μM H2O2 alone, or 150 μM H2O2 in combination with 0.1–50 μM of the tested compound. The cells were seeded at 1 × 10^4 cells/well and incubated at 37 °C under a 5% CO2 atmosphere for 24 h, then treated with the tested compound and incubated for 3 h. Next, the cells were exposed to H2O2 for 2 h again. The MTT solution (20 μl, 5 mg/ml) was next replaced with the medium and incubated for 4 h. 100 μl of DMSO was added to dissolve the formazan precipitate. Absorbance was then measured at 570 nm using a multi-mode plate reader (Biotek, Winooski, VT). Cell viability is expressed as a percentage relative to the untreated control.

AChE (electric eel) = molecular target: T1, AChE (electric eel) (Electrophorus electricus, UniProt O42275); test: biochemical; format: biochemical; settings: electric eel AChE; mean ± SEM of three experiments
T1 construct: purchased Sigma-Aldrich
T1 sequence (O42275 24-633): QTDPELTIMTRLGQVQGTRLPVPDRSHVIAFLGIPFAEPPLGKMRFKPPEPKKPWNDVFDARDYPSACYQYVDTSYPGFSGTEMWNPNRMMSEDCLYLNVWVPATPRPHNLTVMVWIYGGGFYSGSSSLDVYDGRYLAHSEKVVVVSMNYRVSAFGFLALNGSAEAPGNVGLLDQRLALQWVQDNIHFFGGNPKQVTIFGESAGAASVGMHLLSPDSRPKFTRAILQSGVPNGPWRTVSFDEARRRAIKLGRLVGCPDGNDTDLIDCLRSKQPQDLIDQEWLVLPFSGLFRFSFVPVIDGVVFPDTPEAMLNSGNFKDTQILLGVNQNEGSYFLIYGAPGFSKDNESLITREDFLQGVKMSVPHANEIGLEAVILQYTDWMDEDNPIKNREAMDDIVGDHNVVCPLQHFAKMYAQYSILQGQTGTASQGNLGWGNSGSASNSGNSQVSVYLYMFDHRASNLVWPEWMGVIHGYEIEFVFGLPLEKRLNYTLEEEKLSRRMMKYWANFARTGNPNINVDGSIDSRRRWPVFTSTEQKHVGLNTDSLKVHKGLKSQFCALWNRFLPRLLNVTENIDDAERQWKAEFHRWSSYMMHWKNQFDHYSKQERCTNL
Experimental: (§1) AChE, BuChE, 5,5'-dithiobis (2-nitrobenzoic acid) (DTNB), acetyl- and butyrylthiocholine iodides were purchased from Sigma-Aldrich. Five different concentrations of the corresponding compounds in ethanol-DMSO (9:1) were prepared. […] After 3 min of incubation, the substrate solution (acetylthiocholine iodide or butyrylthiocholine iodide, 0.05 M) was added and then incubated for at least 1 min at 25°C. […] The inhibition curve was obtained by plotting the percentage of enzyme activity (100% for the reference) versus the logarithm of the tested compound concentration. […]

BuChE (equine serum) = molecular target: T2, BuChE (equine serum) (Equus caballus, UniProt P81908); test: biochemical; format: biochemical; settings: equine serum BuChE; mean ± SEM of three experiments
T2 construct: purchased Sigma-Aldrich
T2 sequence (P81908 whole entry): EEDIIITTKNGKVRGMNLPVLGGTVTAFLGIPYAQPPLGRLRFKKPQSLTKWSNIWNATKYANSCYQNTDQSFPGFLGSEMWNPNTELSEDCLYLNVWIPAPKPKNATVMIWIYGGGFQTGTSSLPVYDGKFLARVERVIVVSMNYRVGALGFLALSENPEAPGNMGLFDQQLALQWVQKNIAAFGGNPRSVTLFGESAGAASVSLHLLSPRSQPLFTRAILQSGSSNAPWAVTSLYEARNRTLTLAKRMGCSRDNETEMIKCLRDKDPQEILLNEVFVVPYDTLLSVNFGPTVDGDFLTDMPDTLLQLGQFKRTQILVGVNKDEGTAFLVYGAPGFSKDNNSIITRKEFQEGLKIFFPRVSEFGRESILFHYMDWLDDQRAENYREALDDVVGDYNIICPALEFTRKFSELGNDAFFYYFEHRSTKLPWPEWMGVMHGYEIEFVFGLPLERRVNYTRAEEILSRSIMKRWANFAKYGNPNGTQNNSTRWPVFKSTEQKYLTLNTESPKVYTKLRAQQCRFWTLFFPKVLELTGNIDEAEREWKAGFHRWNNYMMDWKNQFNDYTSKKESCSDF
Experimental: as §1

Aβ1-42 = molecular target: T3, Aβ1-42 (Homo sapiens, UniProt P05067); test: Inhibition of self-induced Aβ1-42 aggregation (ThT assay); format: biochemical; settings: Aβ1-42 20 μM, compound 100 μM, after 48 h, ThT, mean ± SEM of three experiments
T3 construct: Amyloid-β protein 1–42 (Sigma A9810) was dissolved; purchased Sigma A9810
T3 sequence (P05067 672-713 limits assumed): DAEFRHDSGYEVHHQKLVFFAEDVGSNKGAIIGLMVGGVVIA
Experimental: Inhibitory properties of the compounds on self-induced and AChE-induced aggregation of amyloid-β protein 1–42 was determined using a thioflavin T (ThT)-based fluorescence assay with slight modifications ([Levine, 1993]). The ThT excitation/emission was measured at 448 nm/490 nm at 48 h using a SpectraMax® Microplate Reader. Amyloid-β protein 1–42 (Sigma A9810) was dissolved in Phosphate Buffer Saline pH 7.4 (PBS, HyClone Thermo Scientific) containing ammonium hydroxide (1%). Aβ1-42 (50 μM) was incubated for 24 h at 37°C for prefibrillation.
To determine AChE-induced Aβ1-42 aggregation, Aβ1-42 (20 μl) ± human recombinant AChE (0.01 u/ml, Sigma C1682) were added to […] of PBS buffer pH 7.4 including 0.15 M NaCl and 20 μM thioflavin T (ThT). The mixture was incubated at 37°C in the absence and presence of the compounds (100 μM) and the fluorescence intensities were determined. Due to the presence of the tested compounds, inhibition of self- or AChE-induced aggregation percent was determined by the following calculation: [100-((IFi/IFo) × 100)] where IFi and IFo are the fluorescence intensities obtained for Aβ ± AChE in the presence and in the absence of inhibitors.

Row | Compound | PC12 cell viability (% of control) (PC12 cells; 0.1 μM compound) | PC12 cell viability (% of control) (PC12 cells; 1 μM compound) | PC12 cell viability (% of control) (PC12 cells; 5 μM compound) | PC12 cell viability (% of control) (PC12 cells; 10 μM compound) | PC12 cell viability (% of control) (PC12 cells; 20 μM compound) | PC12 cell viability (% of control) (PC12 cells; 50 μM compound) | IC50 (AChE (electric eel)) [nM] | IC50 (BuChE (equine serum)) [nM] | Inhibition of self-induced Aβ aggregation (Aβ1-42) [%]
1 | COc1ccc2oc(=O)c(-c3ccc(OCCC[n+]4ccccc4)cc3)cc2c1.[Br-] [Compound 3b, 1-(3-(4-(6-Methoxy-2-oxo-2H-chromen-3-yl)phenoxy)propyl)pyridinium Bromide] | 31.7 ± 1.4 % of control | 37.6 ± 1.1 % of control | 43.3 ± 0.9 % of control | 45.4 ± 1.3 % of control | 49.6 ± 0.9 % of control | 54.3 ± 1.6 % of control | 4 ± 1 | 68 ± 6 | –
2 | COc1ccc2cc(-c3ccc(OCCC[n+]4ccccc4)cc3)c(=O)oc2c1 [Compound 3c, 1-(3-(4-(7-Methoxy-2-oxo-2H-chromen-3-yl)phenoxy)propyl)pyridinium Bromide] | – | – | – | – | – | – | 7 ± 1 | 57 ± 10 | –
3 | COc1cccc2cc(-c3ccc(OCCC[n+]4ccccc4)cc3)c(=O)oc12 [Compound 3d, 1-(3-(4-(8-Methoxy-2-oxo-2H-chromen-3-yl)phenoxy)propyl)pyridinium Bromide] | – | – | – | – | – | – | 81 ± 4 | 79 ± 9 | –
4 | O=c1oc2ccc(Br)cc2cc1-c1ccc(OCCC[n+]2ccccc2)cc1 [Compound 3e, 1-(3-(4-(6-Bromo-2-oxo-2H-chromen-3-yl)phenoxy)propyl)pyridinium Bromide] | – | – | – | – | – | – | 15 ± 3 | 33 ± 5 | –
5 | O=c1oc2ccccc2cc1-c1ccc(OCCCC[n+]2ccccc2)cc1.[Br-] [Compound 3g, 1-(4-(4-(2-Oxo-2H-chromen-3-yl)phenoxy)butyl)pyridinium Bromide] | 30.2 ± 1.4 % of control | 33.6 ± 1.2 % of control | 36.6 ± 0.9 % of control | 45.8 ± 0.3 % of control | 48.7 ± 0.9 % of control | 49.9 ± 0.9 % of control | 7 ± 1 | 91 ± 18 | –
6 | COc1ccc2oc(=O)c(-c3ccc(OCCCC[n+]4ccccc4)cc3)cc2c1 [Compound 3h, 1-(4-(4-(6-Methoxy-2-oxo-2H-chromen-3-yl)phenoxy)butyl)pyridinium Bromide] | – | – | – | – | – | – | 1000 ± 37 | 106 ± 8 | –
7 | COc1ccc2cc(-c3ccc(OCCCC[n+]4ccccc4)cc3)c(=O)oc2c1 [Compound 3i, 1-(4-(4-(7-Methoxy-2-oxo-2H-chromen-3-yl)phenoxy)butyl)pyridinium Bromide] | – | – | – | – | – | – | 144 ± 9 | 46 ± 1 | –
8 | COc1cccc2cc(-c3ccc(OCCCC[n+]4ccccc4)cc3)c(=O)oc12 [Compound 3j, 1-(4-(4-(8-Methoxy-2-oxo-2H-chromen-3-yl)phenoxy)butyl)pyridinium Bromide] | – | – | – | – | – | – | 31 ± 5 | 97 ± 19 | –
9 | O=c1oc2ccc(Br)cc2cc1-c1ccc(OCCCC[n+]2ccccc2)cc1 [Compound 3k, 1-(4-(4-(6-Bromo-2-oxo-2H-chromen-3-yl)phenoxy)butyl)pyridinium Bromide] | – | – | – | – | – | – | 40 ± 5 | 92 ± 9 | –
10 | O=c1oc2ccc([N+](=O)[O-])cc2cc1-c1ccc(OCCCC[n+]2ccccc2)cc1.[Br-] [Compound 3l, 1-(4-(4-(6-Nitro-2-oxo-2H-chromen-3-yl)phenoxy)butyl)pyridinium Bromide] | 23.7 ± 0.5 % of control | 27.3 ± 1.2 % of control | 33.5 ± 1.2 % of control | 37.8 ± 1.0 % of control | 51.6 ± 1.1 % of control | 55.7 ± 2.0 % of control | 3 ± 1 | 59 ± 11 | –
11 | O=c1oc2ccccc2cc1-c1ccc(OCCCCC[n+]2ccccc2)cc1 [Compound 3m, 1-(5-(4-(2-Oxo-2H-chromen-3-yl)phenoxy)pentyl)pyridinium Bromide] | – | – | – | – | – | – | 72 ± 8 | 86 ± 10 | –
12 | COc1cccc2cc(-c3ccc(OCCCCC[n+]4ccccc4)cc3)c(=O)oc12 [Compound 3n, 1-(5-(4-(8-Methoxy-2-oxo-2H-chromen-3-yl)phenoxy)pentyl)pyridinium Bromide] | – | – | – | – | – | – | 15 ± 2 | 123 ± 24 | –
13 | O=c1oc2ccc([N+](=O)[O-])cc2cc1-c1ccc(OCCCCC[n+]2ccccc2)cc1 [Compound 3o, 1-(5-(4-(6-Nitro-2-oxo-2H-chromen-3-yl)phenoxy)pentyl)pyridinium Bromide] | – | – | – | – | – | – | 22 ± 4 | 27 ± 2 | –
14 | O=c1oc2ccc(Br)cc2cc1-c1ccc(OCCCCC[n+]2ccccc2)cc1 [Compound 3p, 1-(5-(4-(6-Bromo-2-oxo-2H-chromen-3-yl)phenoxy)pentyl)pyridinium Bromide] | – | – | – | – | – | – | 3 | 49 ± 5 | –
15 | CCc1ccc(C)[n+](CCCCCOc2ccc(-c3cc4cc(Br)ccc4oc3=O)cc2)c1 [Compound 3q, 1-(5-(4-(6-Bromo-2-oxo-2H-chromen-3-yl)phenoxy)pentyl)-5-ethyl-2-methylpyridin-1-ium Bromide] | – | – | – | – | – | – | 19 ± 1.6 | 22 ± 2.3 | –
16 | CN(C)c1cc[n+](CCCOc2ccc(-c3cc4ccccc4oc3=O)cc2)cc1 [Compound 3s, 4-(Dimethylamino)-1-(3-(4-(2-oxo-2H-chromen-3-yl)phenoxy)propyl)pyridin-1-ium Bromide] | – | – | – | – | – | – | 22 ± 1.9 | 34 ± 2.6 | –
17 | COc1cc2c(cc1OC)C(=O)C(CC1CCN(Cc3ccccc3)CC1)C2 (stereo not drawn) [Donepezil, reference compound] | – | – | – | – | – | – | – | – | 30.8 ± 1.7
18 | O=c1c(O)c(-c2ccc(O)c(O)c2)oc2cc(O)cc(O)c12 [Quercetin, reference compound] | 37.7 ± 1.2 % of control | 44.2 ± 0.7 % of control | 50.7 ± 0.1 % of control | 55.8 ± 0.3 % of control | 59.6 ± 0.8 % of control | 61.0 ± 0.8 % of control | – | – | –
